Drawing on ChEMBL document CHEMBL3991601, “The target landscape of clinical kinase drugs” (Science, 2017), this text covers Kd for 15 molecules.

Activity calls are given as the source filed them. On the calls: in the data inactive means no Kd found up to 30 µM. Where only a bound is given, the exact number is not on record here.

In test [1] the target is ALK tyrosine kinase receptor (Homo sapiens, UniProt Q9UM73). Format: subcellular, K-562, COLO 205, SK-N-BE(2) and MV-4-11, Cell lysate. Particulars: read-out: Kd apparent.
The target in a further test is T1, UMP-CMP kinase (Homo sapiens, UniProt P30085).
T1 sequence (P30085 whole entry): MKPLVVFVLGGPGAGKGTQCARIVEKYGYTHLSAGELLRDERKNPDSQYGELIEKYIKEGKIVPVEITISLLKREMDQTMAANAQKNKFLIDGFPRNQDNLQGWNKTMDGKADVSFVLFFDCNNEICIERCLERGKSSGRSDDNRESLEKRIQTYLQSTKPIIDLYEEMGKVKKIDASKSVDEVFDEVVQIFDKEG

The target in test [2] is Eukaryotic peptide chain release factor GTP-binding subunit ERF3B (Homo sapiens, UniProt Q8IYD1).
Test [3] deals with Choline-phosphate cytidylyltransferase A (Homo sapiens, UniProt P49585).
For test [4], the target named is Dual specificity protein kinase CLK4 (Homo sapiens, UniProt Q9HAZ1).
Test [5] concerns the target Serine/threonine-protein kinase PLK1 (Homo sapiens, UniProt P53350).
The target in test [6] is Serine/threonine-protein kinase 24 (Homo sapiens, UniProt Q9Y6E0).
The target in test [7] is Serine/threonine-protein kinase 38 (Homo sapiens, UniProt Q15208).
A further test has as its target Misshapen-like kinase 1 (Homo sapiens, UniProt Q8N4C8).
Test [8] addresses Dual specificity protein kinase CLK3 (Homo sapiens, UniProt P49761). The test is classed as subcellular, K-562, COLO 205, SK-N-BE(2) and MV-4-11, Cell lysate. Particulars: read-out: Kd apparent.
The target of test [9] is Activin receptor type-1-like (Homo sapiens, UniProt P37023).
In test [10] the target is Uncharacterized aarF domain-containing protein kinase 5 (Homo sapiens, UniProt Q3MIX3).
The target in test [11] is Tyrosine-protein kinase JAK2 (Homo sapiens, UniProt O60674).
Test [12] has as its target Dual specificity testis-specific protein kinase 2 (Homo sapiens, UniProt Q96S53).
Test [13] addresses Cyclin-dependent kinase 10 (Homo sapiens, UniProt Q15131).
The target of test [14] is Tyrosine-protein kinase Fgr (Homo sapiens, UniProt P09769).
Test [15] has as its target T2, Protein kinase C zeta type (Homo sapiens, UniProt Q05513).
T2 sequence (Q05513 whole entry): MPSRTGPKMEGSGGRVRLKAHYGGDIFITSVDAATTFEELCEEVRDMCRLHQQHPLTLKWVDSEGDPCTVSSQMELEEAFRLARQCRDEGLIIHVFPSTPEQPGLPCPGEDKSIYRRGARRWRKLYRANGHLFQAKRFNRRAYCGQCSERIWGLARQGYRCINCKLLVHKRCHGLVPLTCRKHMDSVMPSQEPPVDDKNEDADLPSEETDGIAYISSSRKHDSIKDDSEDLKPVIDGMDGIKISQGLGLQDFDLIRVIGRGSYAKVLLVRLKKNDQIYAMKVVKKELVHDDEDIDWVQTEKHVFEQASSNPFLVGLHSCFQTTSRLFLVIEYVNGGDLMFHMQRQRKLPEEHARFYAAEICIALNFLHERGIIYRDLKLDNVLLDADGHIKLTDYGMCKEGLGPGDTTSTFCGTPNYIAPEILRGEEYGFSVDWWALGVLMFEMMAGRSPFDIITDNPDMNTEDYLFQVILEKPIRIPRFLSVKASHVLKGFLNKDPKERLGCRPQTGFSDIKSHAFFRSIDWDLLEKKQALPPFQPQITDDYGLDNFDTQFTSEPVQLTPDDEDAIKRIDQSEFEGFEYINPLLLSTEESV

Test [16] deals with Dual specificity tyrosine-phosphorylation-regulated kinase 1B (Homo sapiens, UniProt Q9Y463).
Sequence of Dual specificity tyrosine-phosphorylation-regulated kinase 1B (Q9Y463 whole entry): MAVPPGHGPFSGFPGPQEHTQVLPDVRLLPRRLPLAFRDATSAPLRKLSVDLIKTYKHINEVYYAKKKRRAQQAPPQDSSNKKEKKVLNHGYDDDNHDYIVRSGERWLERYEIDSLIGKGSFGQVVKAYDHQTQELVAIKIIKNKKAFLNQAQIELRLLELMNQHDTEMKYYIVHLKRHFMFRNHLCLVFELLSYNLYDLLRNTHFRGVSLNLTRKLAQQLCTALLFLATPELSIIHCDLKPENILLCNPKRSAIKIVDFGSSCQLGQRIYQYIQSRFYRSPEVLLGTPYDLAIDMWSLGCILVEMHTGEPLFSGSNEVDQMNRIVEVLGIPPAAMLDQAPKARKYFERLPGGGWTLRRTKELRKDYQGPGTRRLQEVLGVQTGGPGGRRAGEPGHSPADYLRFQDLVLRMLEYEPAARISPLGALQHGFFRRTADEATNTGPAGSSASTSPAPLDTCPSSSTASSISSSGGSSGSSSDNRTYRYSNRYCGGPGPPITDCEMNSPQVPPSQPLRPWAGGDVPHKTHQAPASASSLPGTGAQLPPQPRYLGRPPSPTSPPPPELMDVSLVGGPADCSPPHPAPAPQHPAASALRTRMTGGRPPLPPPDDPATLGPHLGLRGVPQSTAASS

Sequence of Dual specificity testis-specific protein kinase 2 (Q96S53 whole entry): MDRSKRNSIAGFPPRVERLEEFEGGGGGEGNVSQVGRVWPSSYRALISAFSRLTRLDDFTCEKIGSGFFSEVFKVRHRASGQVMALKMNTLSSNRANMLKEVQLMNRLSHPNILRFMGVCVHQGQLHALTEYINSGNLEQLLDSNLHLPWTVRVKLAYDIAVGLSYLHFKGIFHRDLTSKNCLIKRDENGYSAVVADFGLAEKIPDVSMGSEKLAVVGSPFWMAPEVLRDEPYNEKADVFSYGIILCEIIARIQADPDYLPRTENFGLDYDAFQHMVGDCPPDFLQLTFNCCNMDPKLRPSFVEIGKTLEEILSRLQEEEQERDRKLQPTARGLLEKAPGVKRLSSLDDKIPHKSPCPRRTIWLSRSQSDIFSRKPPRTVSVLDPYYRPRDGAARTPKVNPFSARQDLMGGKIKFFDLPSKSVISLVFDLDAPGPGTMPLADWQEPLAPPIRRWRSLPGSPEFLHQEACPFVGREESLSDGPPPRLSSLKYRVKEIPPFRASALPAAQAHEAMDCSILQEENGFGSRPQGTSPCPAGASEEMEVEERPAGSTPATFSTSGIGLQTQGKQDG
Sequence of Dual specificity protein kinase CLK4 (Q9HAZ1 whole entry): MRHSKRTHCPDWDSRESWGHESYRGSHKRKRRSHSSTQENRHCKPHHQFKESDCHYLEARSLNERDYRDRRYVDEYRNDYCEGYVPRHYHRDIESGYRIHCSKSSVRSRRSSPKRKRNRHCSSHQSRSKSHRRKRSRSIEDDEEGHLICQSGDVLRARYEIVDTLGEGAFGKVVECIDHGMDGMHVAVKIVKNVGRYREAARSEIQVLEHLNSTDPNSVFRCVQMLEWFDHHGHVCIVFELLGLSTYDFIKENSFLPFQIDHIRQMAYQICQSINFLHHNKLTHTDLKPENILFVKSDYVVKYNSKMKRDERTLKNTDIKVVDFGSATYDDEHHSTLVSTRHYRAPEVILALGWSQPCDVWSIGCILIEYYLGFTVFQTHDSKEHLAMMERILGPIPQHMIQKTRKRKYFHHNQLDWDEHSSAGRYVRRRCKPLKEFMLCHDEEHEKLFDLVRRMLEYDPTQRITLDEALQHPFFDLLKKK
Sequence of Misshapen-like kinase 1 (Q8N4C8 whole entry): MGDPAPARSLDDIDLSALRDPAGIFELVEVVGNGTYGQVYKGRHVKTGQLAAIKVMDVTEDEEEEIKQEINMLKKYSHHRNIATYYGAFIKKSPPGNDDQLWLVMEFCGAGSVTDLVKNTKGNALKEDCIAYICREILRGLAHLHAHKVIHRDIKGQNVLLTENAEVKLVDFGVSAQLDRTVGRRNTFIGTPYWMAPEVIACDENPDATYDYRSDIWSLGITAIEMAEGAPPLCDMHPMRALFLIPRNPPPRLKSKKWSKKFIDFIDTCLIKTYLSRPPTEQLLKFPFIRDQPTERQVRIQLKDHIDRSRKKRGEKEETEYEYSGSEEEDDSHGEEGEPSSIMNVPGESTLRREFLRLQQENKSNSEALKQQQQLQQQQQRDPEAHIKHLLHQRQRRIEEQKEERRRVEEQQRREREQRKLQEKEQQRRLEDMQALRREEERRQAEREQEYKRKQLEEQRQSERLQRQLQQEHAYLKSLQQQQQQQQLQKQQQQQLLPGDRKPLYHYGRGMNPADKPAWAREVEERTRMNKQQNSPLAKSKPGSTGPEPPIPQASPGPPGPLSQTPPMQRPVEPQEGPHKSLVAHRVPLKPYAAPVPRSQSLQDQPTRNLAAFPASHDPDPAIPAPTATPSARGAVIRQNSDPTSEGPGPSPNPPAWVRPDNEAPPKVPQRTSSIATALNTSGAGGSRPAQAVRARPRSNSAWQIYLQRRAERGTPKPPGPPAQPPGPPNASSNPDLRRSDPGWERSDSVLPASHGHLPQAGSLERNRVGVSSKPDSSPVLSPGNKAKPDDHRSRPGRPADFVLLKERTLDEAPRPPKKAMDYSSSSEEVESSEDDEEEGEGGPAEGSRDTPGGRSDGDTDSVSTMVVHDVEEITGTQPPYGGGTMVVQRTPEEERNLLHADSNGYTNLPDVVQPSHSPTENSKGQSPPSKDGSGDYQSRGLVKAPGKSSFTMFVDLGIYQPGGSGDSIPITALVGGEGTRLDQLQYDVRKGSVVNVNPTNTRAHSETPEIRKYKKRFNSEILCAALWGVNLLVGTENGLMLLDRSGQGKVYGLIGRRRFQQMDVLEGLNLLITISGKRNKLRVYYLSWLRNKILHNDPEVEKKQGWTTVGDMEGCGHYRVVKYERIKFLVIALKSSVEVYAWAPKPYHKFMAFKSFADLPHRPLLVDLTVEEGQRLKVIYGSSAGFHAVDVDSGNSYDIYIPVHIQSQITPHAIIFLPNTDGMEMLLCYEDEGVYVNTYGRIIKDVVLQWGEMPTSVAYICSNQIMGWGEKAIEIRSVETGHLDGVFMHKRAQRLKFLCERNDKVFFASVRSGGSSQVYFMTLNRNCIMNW
Sequence of Dual specificity protein kinase CLK3 (P49761 whole entry): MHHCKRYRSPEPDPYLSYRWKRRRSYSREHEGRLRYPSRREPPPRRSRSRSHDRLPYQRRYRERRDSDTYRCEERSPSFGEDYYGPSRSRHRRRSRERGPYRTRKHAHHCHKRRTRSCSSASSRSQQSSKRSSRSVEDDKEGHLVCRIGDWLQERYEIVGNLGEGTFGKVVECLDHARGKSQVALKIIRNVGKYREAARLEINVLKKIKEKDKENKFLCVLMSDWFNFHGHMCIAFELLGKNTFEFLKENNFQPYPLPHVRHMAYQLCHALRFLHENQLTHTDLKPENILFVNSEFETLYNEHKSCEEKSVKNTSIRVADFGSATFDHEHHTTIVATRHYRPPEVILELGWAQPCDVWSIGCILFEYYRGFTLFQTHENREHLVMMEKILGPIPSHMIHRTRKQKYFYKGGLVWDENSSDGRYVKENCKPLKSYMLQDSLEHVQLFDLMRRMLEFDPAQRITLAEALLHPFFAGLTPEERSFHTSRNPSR
Sequence of Serine/threonine-protein kinase PLK1 (P53350 whole entry): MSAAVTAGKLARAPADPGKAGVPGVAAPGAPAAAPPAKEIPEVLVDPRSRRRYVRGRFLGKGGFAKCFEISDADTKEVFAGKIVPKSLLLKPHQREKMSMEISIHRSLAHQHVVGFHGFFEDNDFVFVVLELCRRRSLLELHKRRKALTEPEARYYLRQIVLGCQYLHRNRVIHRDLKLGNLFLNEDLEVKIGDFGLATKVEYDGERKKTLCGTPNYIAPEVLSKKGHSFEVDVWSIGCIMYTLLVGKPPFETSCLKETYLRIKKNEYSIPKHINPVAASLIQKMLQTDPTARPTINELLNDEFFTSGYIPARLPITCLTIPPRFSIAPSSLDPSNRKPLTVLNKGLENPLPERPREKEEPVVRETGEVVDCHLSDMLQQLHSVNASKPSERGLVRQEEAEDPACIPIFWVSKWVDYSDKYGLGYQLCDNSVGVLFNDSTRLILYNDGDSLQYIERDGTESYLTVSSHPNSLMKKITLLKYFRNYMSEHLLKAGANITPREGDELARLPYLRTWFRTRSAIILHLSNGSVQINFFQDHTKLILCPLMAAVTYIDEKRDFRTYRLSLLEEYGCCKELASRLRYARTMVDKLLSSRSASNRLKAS
Sequence of Eukaryotic peptide chain release factor GTP-binding subunit ERF3B (Q8IYD1 whole entry): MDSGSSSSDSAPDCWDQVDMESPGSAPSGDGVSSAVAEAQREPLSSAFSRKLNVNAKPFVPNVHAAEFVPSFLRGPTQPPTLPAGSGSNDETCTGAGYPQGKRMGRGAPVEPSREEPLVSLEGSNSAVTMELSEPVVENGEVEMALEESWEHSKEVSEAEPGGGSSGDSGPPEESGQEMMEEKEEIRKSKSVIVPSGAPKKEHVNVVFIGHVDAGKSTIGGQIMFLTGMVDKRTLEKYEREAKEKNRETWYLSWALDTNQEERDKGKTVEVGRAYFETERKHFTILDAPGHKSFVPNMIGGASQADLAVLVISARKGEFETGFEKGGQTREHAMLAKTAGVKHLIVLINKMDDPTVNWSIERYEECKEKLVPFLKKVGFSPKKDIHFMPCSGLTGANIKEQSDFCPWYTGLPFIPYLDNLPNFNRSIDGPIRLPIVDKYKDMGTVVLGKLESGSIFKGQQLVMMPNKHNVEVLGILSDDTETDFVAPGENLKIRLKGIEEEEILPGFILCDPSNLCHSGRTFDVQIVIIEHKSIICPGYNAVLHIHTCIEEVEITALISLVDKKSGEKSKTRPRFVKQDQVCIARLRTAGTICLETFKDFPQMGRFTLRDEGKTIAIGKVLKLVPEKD

In the case of `CC(=O)c1cnc2ccc(-c3cc(Cl)c(O)c(Cl)c3)nc2c1N[C@H]1CC[C@H](CN(C)C)CC1`, the Kd (in test [1]; on UMP-CMP kinase; in test [2]; in test [3]) was > 30 µM (inactive) in each case.

Turning to `COCc1c(-c2ccc(NC(=O)Nc3cc(C(F)(F)F)ccc3F)c(F)c2)c2c(N)ncnn2c1CN1CCOCC1`, the Kd in test [1], in test [4], in test [5], in test [6] and in test [7] was > 30 µM (inactive) in each case.

`Nc1ncnc2c1c(-c1cccc(OCc3ccccc3)c1)cn2[C@H]1C[C@@H](CN2CCC2)C1` [AEW-541]: the Kd (in test [1]; at Misshapen-like kinase 1; in [5]) was > 30 µM (inactive) in each case.

As for `Cc1csc(-c2nnc(Nc3ccc(Oc4ncccc4-c4ccnc(N)n4)cc3)c3ccccc23)c1` [AMG-900], the Kd in [8] is 1.48 µM (active); in test [9] it was > 30 µM (inactive); in test [10], > 30 µM (inactive); in test [4], > 30 µM (inactive); on UMP-CMP kinase, > 30 µM (inactive); in [11], > 30 µM (inactive). Besides, the Kd in test [6], in [7] and in test [12] was > 30 µM (inactive) in each case.

On to `NC(=O)Nc1cc(-c2cccc(F)c2)sc1C(=O)N[C@H]1CCCNC1` [AZD-7762], for which the Kd (in [8]; in test [9]; in [10]; in test [13]; in [4]; at UMP-CMP kinase) was > 30 µM (inactive) each time. Besides, the Kd in [12] was > 30 µM (inactive).

Regarding `Cc1cc(C(=O)NOCCO)c(Nc2ccc(I)cc2F)n(C)c1=O` [AZD-8330], the Kd (in [8]; in test [9]; in test [10]; at UMP-CMP kinase; in test [14]; in test [11]) was > 30 µM (inactive) each time. Moreover, the Kd (on Misshapen-like kinase 1; in [3]; in test [5]) was > 30 µM (inactive) each time.

`Cn1cnc2c(F)c(Nc3ccc(Br)cc3F)c(C(=O)NOCCO)cc21` [BINIMETINIB]: the Kd (in [9]; in [10]; in [13]; in test [4]; on UMP-CMP kinase; in test [14]) was > 30 µM (inactive) in each case. Also, the Kd in test [3], in [5] and in [6] was > 30 µM (inactive) each time.

With `COCC(=O)NC/C=C/c1ccc2ncnc(Nc3ccc(Oc4ccc(C)nc4)c(C)c3)c2c1` [CP-724714], the Kd in [1], in test [10], in test [4], in test [3], in test [5] and in test [15] was > 30 µM (inactive) each time. Also, the Kd in test [12] was > 30 µM (inactive).

Take `Cc1cccc(-c2nn3c(c2-c2ccnc4ccc(C(N)=O)cc24)CCC3)n1` [GALUNISERTIB]: the Kd was > 30 µM (inactive) in [1]; > 30 µM (inactive) in [4]; > 30 µM (inactive) in test [16]; > 30 µM (inactive) in [2]; 0.018 µM on Misshapen-like kinase 1; > 30 µM (inactive) in test [5]. For the same molecule, the Kd in test [6] and in [12] was > 30 µM (inactive) in each case.

Regarding `CCn1cc(-c2ccnc3[nH]c(-c4cccc(CN(C)C)c4)cc23)c(-c2ccc(NC(=O)N(C)C)cc2)n1` [GSK-1070916], the Kd in test [8], in [10], in test [4], in test [16], in test [14] and in test [11] was > 30 µM (inactive) in each case. Moreover, the Kd in test [3], in [7] and in [12] was > 30 µM (inactive) throughout.

`CN(C[C@@H]1COCCO1)S(=O)(=O)Nc1ccc2ccc3ncc(-c4cnn(C)c4)cc3c(=O)c2c1` [MK-2461]: the Kd (in test [1]; at UMP-CMP kinase; at Misshapen-like kinase 1; in test [6]; in test [7]) was > 30 µM (inactive) throughout.

Regarding `Cn1cc(-c2cnc3ccc4ccc(CS(=O)(=O)NCc5ccccn5)cc4c(=O)c3c2)cn1` [MK-8033], the Kd (in [8]; in test [9]; in test [10]; in test [4]; on UMP-CMP kinase; in test [16]) was > 30 µM (inactive) each time. In addition, the Kd in test [2], in test [11] and in [5] was > 30 µM (inactive) each time.

Consider `CO[C@H]1C[C@@H]2CC[C@@H](C)[C@@](O)(O2)C(=O)C(=O)N2CCCC[C@H]2C(=O)O[C@H]([C@H](C)C[C@@H]2CC[C@@H](O)[C@H](OC)C2)CC(=O)[C@H](C)/C=C(\C)[C@@H](O)[C@@H](OC)C(=O)[C@H](C)C[C@H](C)/C=C/C=C/C=C/1C` [SIROLIMUS], for which the Kd (in [8]; in [9]; in test [10]; in test [4]; on UMP-CMP kinase; in test [16]) was > 30 µM (inactive) throughout. For the same molecule, the Kd (in [14]; in test [11]; on Misshapen-like kinase 1; in [3]; in test [5]; in test [15]) was > 30 µM (inactive) in each case. Moreover, the Kd in test [6] and in test [12] was > 30 µM (inactive) in each case.

For the molecule `CO[C@H]1C[C@@H]2CC[C@@H](C)[C@@](O)(O2)C(=O)C(=O)N2CCCC[C@H]2C(=O)O[C@H]([C@H](C)C[C@@H]2CC[C@@H](OC(=O)C(C)(CO)CO)[C@H](OC)C2)CC(=O)[C@H](C)/C=C(\C)[C@@H](O)[C@@H](OC)C(=O)[C@H](C)C[C@H](C)/C=C/C=C/C=C/1C` [TEMSIROLIMUS], the Kd (in [1]; in test [8]; in test [13]; in test [4]; at UMP-CMP kinase; in [14]) was > 30 µM (inactive) in each case. Further, the Kd (in test [2]; in test [11]; at Misshapen-like kinase 1; in [3]; in [5]; in [15]) was > 30 µM (inactive) in each case. Besides, in test [6], the Kd is > 30 µM (inactive).

For the molecule `O=C(Cc1ccc(-c2ccc(OCCN3CCOCC3)cc2)cn1)NCc1ccccc1` [TIRBANIBULIN], the Kd (in test [8]; in test [9]; in [10]; in test [4]; on UMP-CMP kinase; in test [16]) was > 30 µM (inactive) each time. Besides, the Kd (in [14]; in test [2]; in [11]; at Misshapen-like kinase 1; in test [3]; in test [5]) was > 30 µM (inactive) throughout. Also, the Kd in test [15], in [6], in test [7] and in [12] was > 30 µM (inactive) in each case.
